The record followed here is ChEMBL document CHEMBL4425148, “Cytotoxic prenylated flavones from the stem and root bark of Daphne giraldii” (Bioorg Med Chem Lett, 2016).

One assay has as its system Bcap37. Briefly: Cytotoxicity against human Bcap37 cells assessed as reduction in cell growth incubated for 48 hrs by MTT assay. The settings on record: Bcap37, 48 h. The assay is classed as functional, cell-based.
The next assay concerns A549. Briefly: Cytotoxicity against human A549 cells assessed as reduction in cell growth incubated for 48 hrs by MTT assay. The assay is classed as functional, cell-based. The settings on record: A549, 48 h.
The subject of another assay is MCF7. Briefly: cells. Particulars: Homo sapiens, MCF7, 48 h.
For another assay, the system named is U-251. Briefly: Cytotoxicity against human U251 cells assessed as reduction in cell growth incubated for 48 hrs by MTT assay. In kind it is functional, cell-based. The settings on record: U-251, 48 h.
In assay [1] the test system is HepG2. Briefly: cells. The settings on record: Homo sapiens, HepG2, 48 h.
The subject of assay [2] is HepG2. Briefly: Induction of apoptosis in human HepG2 cells assessed as early apoptotic cells at 2 uM after 48 hrs by Annexin V-FITC/propidium iodide based flow cytometric analysis (reference value: 3.33 %). In kind it is functional.
Assay [3] has as its system HepG2. Briefly: Induction of apoptosis in human HepG2 cells after 48 hrs by Annexin V-FITC/propidium iodide based flow cytometric analysis. In kind it is functional, cell-based.
For assay [4], the system named is HepG2. Briefly: Induction of apoptosis in human HepG2 cells assessed as late apoptotic cells at 2 uM after 48 hrs by Annexin V-FITC/propidium iodide based flow cytometric analysis (reference value: 3.81 %). The assay is classed as functional.

With `COc1ccc(-c2cc(=O)c3c(O)c(OC)c(O)cc3o2)cc1OC` [EUPATILIN], the IC50 was above 100 µM in the assay on Bcap37; above 100 µM in the assay with A549; 90.1 µM in the assay with MCF7; above 100 µM in the assay with U-251; 52.6 µM in the assay with HepG2 [1].

For the compound `CC(C)=CCc1c(-c2ccc(O)cc2O)oc2c3c(cc(O)c2c1=O)OC(C)(C)C=C3` [MORUSIN], the IC50 with Bcap37 was found to be 33.1 µM; in the assay with A549, 24.1 µM; in the assay on MCF7, 11.5 µM; with U-251 it was 17.9 µM; in the assay on HepG2 [1] it was 9.3 µM.

Consider `COc1c(-c2cc(O)c3c(c2)C=CC(C)(C)O3)oc2c(CC=C(C)C)c(O)cc(O)c2c1=O`, for which the half-maximal inhibitory concentration (IC50) in the assay with Bcap37 was above 100 µM; in the assay on A549, 66.8 µM; in the assay on MCF7, 76.9 µM; in the assay with U-251, above 100 µM; in the assay on HepG2 [1] it was 36.7 µM.

On to `O=c1[nH]cc(F)c(=O)[nH]1` [FLUOROURACIL], for which the IC50 in the assay on Bcap37 came to 37.1 µM; with A549, 24.7 µM; with U-251, 38.7 µM; in the assay on HepG2 [1] it was 39.7 µM.

For the compound `COc1c(-c2cc(O)c3c(c2)C=CC(C)(C)O3)oc2c3c(cc(O)c2c1=O)OC(C)(C)[C@@H](O)C3`, the IC50 was 20.8 µM in the assay with Bcap37; 5.39 µM in the assay with A549; 6.98 µM in the assay with MCF7; 12 µM with U-251; 4.26 µM in the assay on HepG2 [1]. The Activity in the assay with HepG2 [2] is 13.77%; in the assay with HepG2 [3], “Dose-dependent effect”; in the assay on HepG2 [4], 14.32%.

Consider `COc1c(-c2ccc(O)c(O)c2)oc2c(CC=C(C)C)c(O)c(CC=C(C)C)c(O)c2c1=O`, for which the IC50 amounted to 45.4 µM in the assay on Bcap37; 25 µM in the assay on A549; 18.8 µM with MCF7; 17.3 µM with U-251; 14.1 µM in the assay with HepG2 [1].

With `CC(C)=CCc1cc([C@@H]2CC(=O)c3ccc(O)cc3O2)c2c(c1O)OC(C)(C)CC2`, the IC50 was above 100 µM with Bcap37; 18.4 µM with A549; above 100 µM with MCF7; above 100 µM in the assay with U-251; above 100 µM in the assay on HepG2 [1].
